In ChEMBL document CHEMBL1201862, “PubChem BioAssay data set” (2004):
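Assay format: 96-well plates, 48-hour exposure. GI50 = concentration required for 50% inhibition of growth.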 The source made the active and inactive calls. Cut-off read from the data, not from the text of the source: active = GI50 up to about 1.1 µM and inactive = higher.

Columns and labels:
Assay in all cases: NCI tumour cell line growth inhibition, 48 h
SK-MEL-5 = system: SK-MEL-5
HOP-62 = system: HOP-62
NCI-H23 = system: NCI-H23
MDA-MB-231 = system: MDA-MB-231
786-0 = system: 786-0
HL-60 = system: HL-60
A498 = system: A498
RPMI-8226 = system: RPMI-8226
K562 = system: K562
OVCAR-8 = system: OVCAR-8
NCI-H460 = system: NCI-H460
DU-145 = system: DU-145
CAKI-1 = system: CAKI-1
SF-539 = system: SF-539
RXF 393 = system: RXF 393
SF-268 = system: SF-268
Malme-3M = system: Malme-3M
OVCAR-5 = system: OVCAR-5
UO-31 = system: UO-31

| SMILES | GI50 (SK-MEL-5) | GI50 (HOP-62) | GI50 (NCI-H23) | GI50 (MDA-MB-231) | GI50 (786-0) | GI50 (HL-60) | GI50 (A498) | GI50 (RPMI-8226) | GI50 (K562) | GI50 (OVCAR-8) | GI50 (NCI-H460) | GI50 (DU-145) | GI50 (CAKI-1) | GI50 (SF-539) | GI50 (RXF 393) | GI50 (SF-268) | GI50 (Malme-3M) | GI50 (OVCAR-5) | GI50 (UO-31) |
| --- | --- | --- | --- | --- | --- | --- | --- | --- | --- | --- | --- | --- | --- | --- | --- | --- | --- | --- | --- |
| CCSc1nc(=S)n(-c2ccccc2)c(C)c1C(C)=O | > 100 µM (inactive) | > 100 µM (inactive) | > 100 µM (inactive) | > 100 µM (inactive) | > 100 µM (inactive) | > 100 µM (inactive) | > 100 µM (inactive) | > 100 µM (inactive) | > 100 µM (inactive) | > 100 µM (inactive) | > 100 µM (inactive) | > 100 µM (inactive) | > 100 µM (inactive) | > 100 µM (inactive) | > 100 µM (inactive) | > 100 µM (inactive) | > 100 µM (inactive) | > 100 µM (inactive) | > 100 µM (inactive) |
| O=C(OCc1ccccc1)c1ccc(NCc2cc(O)ccc2O)cc1 | 1.52 µM (inactive) | 7.43 µM (inactive) | 1.53 µM (inactive) | 1.91 µM (inactive) | 1.11 µM (active) | 0.303 µM (active) | 1.09 µM (active) | 0.372 µM (active) | 1.29 µM (inactive) | 1.42 µM (inactive) | 3.42 µM (inactive) | 3.15 µM (inactive) | 0.575 µM (active) | 0.902 µM (active) | 1.07 µM (active) | 1.36 µM (inactive) | 1.56 µM (inactive) | 3.85 µM (inactive) | 1.32 µM (inactive) |
| COC(=O)[C@H](Cc1ccccc1)NP(=O)(O)OCC1OC(n2cc(C)c(=O)[nH]c2=O)CC1N=[N+]=[N-] (some centres undefined) | > 100 µM (inactive) | > 100 µM (inactive) | > 100 µM (inactive) | > 100 µM (inactive) | > 100 µM (inactive) | > 100 µM (inactive) | > 100 µM (inactive) | > 100 µM (inactive) | > 100 µM (inactive) | > 100 µM (inactive) | > 100 µM (inactive) | > 100 µM (inactive) | > 100 µM (inactive) | > 100 µM (inactive) | > 100 µM (inactive) | > 100 µM (inactive) | > 100 µM (inactive) | > 100 µM (inactive) | > 100 µM (inactive) |
| C/C(=N/NC(=S)Nc1cccc(Cl)c1)c1ccccn1 | 0.37 µM (active) | 0.453 µM (active) | 0.463 µM (active) | < 0.0172 µM (active) | 0.562 µM (active) | < 0.0141 µM (active) | 1.5 µM (inactive) | 0.029 µM (active) | 0.0324 µM (active) | 0.0834 µM (active) | 0.357 µM (active) | 0.532 µM (active) | 0.348 µM (active) | 0.593 µM (active) | 1.52 µM (inactive) | 0.142 µM (active) | 0.301 µM (active) | 0.0474 µM (active) | 0.269 µM (active) |
| CCOC(=O)C1=NOC2(C=C(Br)C(=O)C(Br)=C2)C1 | 7.67 µM (inactive) | 6.41 µM (inactive) | 3.05 µM (inactive) | 6.78 µM (inactive) | 0.659 µM (active) | 0.28 µM (active) | 20.1 µM (inactive) | 0.217 µM (active) | 1.37 µM (inactive) | 2.04 µM (inactive) | 6.55 µM (inactive) | 6.7 µM (inactive) | 1.3 µM (inactive) | 4.43 µM (inactive) | 1.59 µM (inactive) | 14.8 µM (inactive) | 0.625 µM (active) | 5.47 µM (inactive) | 1.09 µM (active) |
| O=[N+]([O-])c1ccc(/C=C\c2ccc3c(c2)OCO3)c([N+](=O)[O-])c1 | 19 µM (inactive) | 25.1 µM (inactive) | 21.7 µM (inactive) | 17.2 µM (inactive) | 16.9 µM (inactive) | 17.4 µM (inactive) | 19 µM (inactive) | 4.39 µM (inactive) | 21.3 µM (inactive) | 19 µM (inactive) | 19.5 µM (inactive) | 18.3 µM (inactive) | 25 µM (inactive) | 20 µM (inactive) | 0.0316 µM (active) | 23 µM (inactive) | 19.7 µM (inactive) | 18.7 µM (inactive) | 19.9 µM (inactive) |
